Experimental data from patent publication US12077503B2, “Substituted cyclic amides and their use as herbicides” (FMC CORPORATION, priority 2015, dated 2024).

Legend:
Format in all cases: in vivo
[1] = tested on: barnyardgrass (Echinochloa crus-galli); test: Test B flooded paddy test; conditions: Echinochloa crus-galli, 360 h, Flood, 250 g ai/ha; visually evaluated after 13 to 15 d; read-out: Plant response rating, Barnyardgrass (0 to 100 scale where 0 is no effect and 100 is complete control)
Method in brief: (§1)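 Compound goes directly into floodwater once pots are flooded 3 cm above soil, targeting plants at two leaves; the water depth is then held for the test duration. Plants sit 13–15 d in a greenhouse and are rated visually, 100 denoting complete control.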

[2] = tested on: rice (Oryra sativa); test: Test B flooded paddy test; conditions: Oryza sativa, 360 h, Flood, 250 g ai/ha; visually evaluated after 13 to 15 d; read-out: Plant response rating, Rice (0 to 100 scale where 0 is no effect and 100 is complete control)
Method in brief: as §1

[3] = tested on: sedge, umbrella (small-flower umbrella sedge, Cyperus difformis); test: Test B flooded paddy test; conditions: Cyperus difformis, 360 h, Flood, 250 g ai/ha; visually evaluated after 13 to 15 d; read-out: Plant response rating, Sedge, Umbrella (0 to 100 scale where 0 is no effect and 100 is complete control)
Method in brief: as §1

[4] = tested on: ducksalad (Heteranthera limosa); test: Test B flooded paddy test; conditions: Heteranthera limosa, 360 h, Flood, 250 g ai/ha; visually evaluated after 13 to 15 d; read-out: Plant response rating, Ducksalad (0 to 100 scale where 0 is no effect and 100 is complete control)
Method in brief: as §1

[5] = tested on: barnyardgrass (Echinochloa crus-galli); test: Test A postemergence; conditions: Echinochloa crus-galli, post-emergence, 240 h, Postemergence
Method in brief: (§2)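 Visual injury, scored on a 0–100 scale relative to untreated controls, was recorded about 10 d after application. Treatments were a preemergence soil spray over planted seeds or a postemergence spray on plants at the one- to two-leaf stage, 2 to 10 cm tall, all in loam soil–sand blend in the greenhouse.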

[6] = tested on: blackgrass (Alopecurus myosuroides); test: Test A postemergence; conditions: Alopecurus myosuroides, post-emergence, 240 h, Postemergence, read-out: Blackgrass plant response rating (0 to 100 scale)
Method in brief: as §2

[7] = tested on: ryegrass, Italian (Italian ryegrass, Lolium multiflorum); test: Test A postemergence; conditions: Lolium multiflorum, post-emergence, 240 h, Postemergence, read-out: Ryegrass, Italian plant response rating (0 to 100 scale)
Method in brief: as §2

[8] = tested on: Kochia (Kochia scoparia); test: Test A postemergence; conditions: Bassia scoparia, post-emergence, 240 h, Postemergence, read-out: Kochia plant response rating (0 to 100 scale)
Method in brief: as §2

[9] = tested on: giant foxtail (Setaria faberii); test: Test A postemergence; conditions: Setaria faberi, post-emergence, 240 h, Postemergence, read-out: Foxtail, Giant plant response rating (0 to 100 scale)
Method in brief: as §2

[10] = tested on: corn (Zea mays); test: Test A postemergence; conditions: Zea mays, post-emergence, 240 h, Postemergence, read-out: Corn plant response rating (0 to 100 scale)
Method in brief: as §2

[11] = tested on: pigweed (Amaranthus retroflexus); test: Test A postemergence; conditions: Amaranthus retroflexus, post-emergence, 240 h, Postemergence, read-out: Pigweed plant response rating (0 to 100 scale)
Method in brief: as §2

[12] = tested on: ragweed (common ragweed, Ambrosia elatior); test: Test A postemergence; conditions: Ambrosia artemisiifolia, post-emergence, 240 h, Postemergence, read-out: Ragweed plant response rating (0 to 100 scale)
Method in brief: as §2

[13] = tested on: wheat (Triticum aestivum); test: Test A postemergence; conditions: Triticum aestivum, post-emergence, 240 h, Postemergence, read-out: Wheat plant response rating (0 to 100 scale)
Method in brief: as §2

[14] = tested on: barnyardgrass (Echinochloa crus-galli); test: Test A preemergence; conditions: Echinochloa crus-galli, pre-emergence, 240 h, Preemergence
Method in brief: as §2

[15] = tested on: ryegrass, Italian (Italian ryegrass, Lolium multiflorum); test: Test A preemergence; conditions: Lolium multiflorum, pre-emergence, 240 h, Preemergence
Method in brief: as §2

[16] = tested on: Kochia (Kochia scoparia); test: Test A preemergence; conditions: Bassia scoparia, pre-emergence, 240 h, Preemergence
Method in brief: as §2

[17] = tested on: giant foxtail (Setaria faberii); test: Test A preemergence; conditions: Setaria faberi, pre-emergence, 240 h, Preemergence
Method in brief: as §2

[18] = tested on: pigweed (Amaranthus retroflexus); test: Test A preemergence; conditions: Amaranthus retroflexus, pre-emergence, 240 h, Preemergence
[19] = tested on: ragweed (common ragweed, Ambrosia elatior); test: Test A preemergence; conditions: Ambrosia artemisiifolia, pre-emergence, 240 h, Preemergence
Method in brief: as §2

[20] = 125 g ai/ha, visual rating about 10 d after treatment
[21] = 31 g ai/ha, 0 is no effect, 100 is complete control

## Cc1ccncc1NC(=O)[C@H]1C(=O)N(C)C[C@@H]1c1ccc2c(c1)OC(F)(F)O2 [Compound 1351]
[1]
  pest or weed control at 250 g/ha: 0%
[2]
  pest or weed control at 250 g/ha: 0%
[3]
  pest or weed control at 250 g/ha: 0%
[4]
  pest or weed control at 250 g/ha: 40%
[5]; 125 g ai/ha, visual rating about 10 d after treatment, read-out: Barnyardgrass plant response rating (0 to 100 scale, 0 no effect, 100 complete control)
  pest or weed control at 125 g/ha: 0%
[5]; 31 g ai/ha, 0 is no effect, 100 is complete control, read-out: Barnyardgrass plant response rating (0 to 100 scale)
  pest or weed control at 31 g/ha: 0%
[6]; [20]
  pest or weed control at 125 g/ha: 0%
[6]; [21]
  pest or weed control at 31 g/ha: 0%
[7]; [20]
  pest or weed control at 125 g/ha: 0%
[7]; [21]
  pest or weed control at 31 g/ha: 0%
[8]; [20]
  pest or weed control at 125 g/ha: 0%
[8]; [21]
  pest or weed control at 31 g/ha: 0%
[9]; [20]
  pest or weed control at 125 g/ha: 0%
[9]; [21]
  pest or weed control at 31 g/ha: 0%
[10]; [20]
  plant injury at 125 g/ha: 0%
[10]; [21]
  plant injury at 31 g/ha: 0%
[11]; [20]
  pest or weed control at 125 g/ha: 0%
[11]; [21]
  pest or weed control at 31 g/ha: 0%
[12]; [20]
  pest or weed control at 125 g/ha: 0%
[12]; [21]
  pest or weed control at 31 g/ha: 0%
[13]; [20]
  plant injury at 125 g/ha: 0%
[13]; [21]
  plant injury at 31 g/ha: 0%
[14]; 31 g ai/ha, 0 to 100 scale where 0 is no effect and 100 is complete control, read-out: Barnyardgrass plant response rating
  pest or weed control at 31 g/ha: 0%
[14]; 125 g ai/ha, 0 to 100 scale (0 no effect, 100 complete control), read-out: Plant response rating, Barnyardgrass
  pest or weed control at 125 g/ha: 0%
[15]; 31 g ai/ha, 0 to 100 scale where 0 is no effect and 100 is complete control, read-out: Ryegrass, Italian plant response rating
  pest or weed control at 31 g/ha: 0%
[15]; 125 g ai/ha, 0 to 100 scale (0 no effect, 100 complete control), read-out: Plant response rating, Ryegrass, Italian
  pest or weed control at 125 g/ha: 0%
[16]; 31 g ai/ha, 0 to 100 scale where 0 is no effect and 100 is complete control, read-out: Kochia plant response rating
  pest or weed control at 31 g/ha: 0%
[16]; 125 g ai/ha, 0 to 100 scale (0 no effect, 100 complete control), read-out: Plant response rating, Kochia
  pest or weed control at 125 g/ha: 0%
[17]; 31 g ai/ha, 0 to 100 scale where 0 is no effect and 100 is complete control, read-out: Foxtail, Giant plant response rating
  pest or weed control at 31 g/ha: 0%
[17]; 125 g ai/ha, 0 to 100 scale (0 no effect, 100 complete control), read-out: Plant response rating, Foxtail, Giant
  pest or weed control at 125 g/ha: 0%
[18]; 31 g ai/ha, 0 to 100 scale where 0 is no effect and 100 is complete control, read-out: Pigweed plant response rating
  pest or weed control at 31 g/ha: 0%
[18]; 125 g ai/ha, 0 to 100 scale (0 no effect, 100 complete control), read-out: Plant response rating, Pigweed
  pest or weed control at 125 g/ha: 0%
[19]; 31 g ai/ha, 0 to 100 scale where 0 is no effect and 100 is complete control, read-out: Ragweed plant response rating
  pest or weed control at 31 g/ha: 0%
[19]; 125 g ai/ha, 0 to 100 scale (0 no effect, 100 complete control), read-out: Plant response rating, Ragweed
  pest or weed control at 125 g/ha: 0%
